Results published in patent US10233182B2, “Substituted spirocyclic inhibitors of autotaxin” (X-Rx, Inc., priority 2014, dated 2019).
Structures can show the parent of a compound that is named as a salt.

What follows are compounds tested against Autotaxin (Homo sapiens (Human), UniProt Q13822) (assay: Autotaxin LPC Cascade Assay). Conditions: Autotaxin 5 nM, LPC 100 μM, choline oxidase/HRP/Ampliflu Red fluorescence read-out, 2% DMSO, RT; read-out: IC50 ATX Activity.
Type: biochemical
Method: Autotaxin LPC Cascade Assay:
HA130 and Test Compounds:
Prepare a 1 mM stock of HA130 and a 3 mM stock of each compound in 100% DMSO. Perform a 1:3 serial dilution in DMSO (transfer 5 l of compound to 10 l of DMSO). Add 240 l of buffer to generate a top working concentration of 40 µM (HA130) and 120 µM (test compound) in 4% DMSO.
Ampliflu Red—Prepare a stock of 5 mM from 100 mM in 100% DMSO. Further dilute to a working concentration of 400 μM in buffer (8% DMSO).
Together with compound this yields a 2% DMSO final concentration.
Choline Oxidase/HRP—0.8 U/mL CO and 8 U/mL HRP.
Incubate for 10 mins at RT. Add 5 µl of LPC and incubate for 1 hr on the plate shaker. Prepare the CO/HRP and AR immediately prior to use. Add 2.5 l of CO/HRP and follow with 2.5 l AR. Note order of addition, CO/HRP mix before AR. Read fluorescence intensity (ex/em: 530/590 nm) kinetically for 30 min at RT on the Tecan M1000.

Structure (SMILES)	IC50 [nM]
CC(C)[C@@H](NC(=O)c1cc(C(F)(F)F)ccc1F)C(=O)N1CCC2(CC1)C(=O)N(C)C(=O)N2c1ccc(Cl)cc1 [Example 181, (R)—N-(1-(1-(4-Chlorophenyl)-3-methyl-2,4-dioxo-1,3,8-triazaspiro[4.5]decan-8-yl)-3-methyl-1-oxobutan-2-yl)-2-fluoro-5-(trifluoromethyl)benzamide]	< 500
CC(C)[C@@H](NC(=O)c1cc(C(F)(F)F)ccc1F)C(=O)N1CCC2(CC1)C(=O)N(C)C(=O)N2Cc1cccc(C#N)c1 [Example 101, (R)—N-(1-(1-(3-Cyanobenzyl)-3-methyl-2,4-dioxo-1,3,8-triazaspiro[4.5]decan-8-yl)-3-methyl-1-oxobutan-2-yl)-2-fluoro-5-(trifluoromethyl)benzamide]	< 500
CC(C)[C@@H](NC(=O)c1cc(C(F)(F)F)ccc1F)C(=O)N1CCC2(CC1)C(=O)N(C)C(=O)N2Cc1ccc(Cl)cc1 [Example 99, (R)—N-(1-(1-(4-Chlorobenzyl)-3-methyl-2,4-dioxo-1,3,8-triazaspiro[4.5]decan-8-yl)-3-methyl-1-oxobutan-2-yl)-2-fluoro-5-(trifluoromethyl)benzamide]	< 500
CC(C)[C@@H](NC(=O)c1cc(C(F)(F)F)ccc1F)C(=O)N1CCC2(CC1)C(=O)N(C)C(=O)N2c1ccc(OCC#N)cc1 [Example 82, (R)—N-(1-(1-(4-(cyanomethoxy)phenyl)-3-methyl-2,4-dioxo-1,3,8-triazaspiro[4.5]decan-8-yl)-3-methyl-1-oxobutan-2-yl)-2-fluoro-5-(trifluoromethyl)benzamide]	500 to 1000
Cc1cccc(C(=O)N[C@@H](C(=O)N2CCC3(CC2)C(=O)N(C)CN3c2ccccc2)C2CCCCC2)n1 [Example 131, (R)—N-(1-Cyclohexyl-2-(3-methyl-4-oxo-1-phenyl-1,3,8-triazaspiro[4.5]decan-8-yl)-2-oxoethyl)-6-methylpicolinamide trifluoroacetic Acid Salt]	< 500
CC(C)[C@@H](NC(=O)c1cc(C(F)(F)F)ccc1F)C(=O)N1CCC2(CC1)C(=O)N(C)C(=O)N2c1ccc2c(cnn2C)c1 [Example 12, (R)-2-Fluoro-N-(3-methyl-1-(3-methyl-1-(1-methyl-1H-indazol-5-yl)-2,4-dioxo-1,3,8-triazaspiro[4.5]decan-8-yl)-1-oxobutan-2-yl)-5-(trifluoromethyl)benzamide]	< 500
CC(C)[C@@H](NC(=O)c1cc(C(F)(F)F)ccc1F)C(=O)N1CCC2(CC1)C(=O)N(C)C(=O)N2c1cccnc1 [Example 189, (R)-2-Fluoro-N-(3-methyl-1-(3-methyl-2,4-dioxo-1-(pyridin-3-yl)-1,3,8-triaza-spiro[4.5]decan-8-yl)-1-oxobutan-2-yl)-5-(trifluoromethyl)benzamide]	500 to 1000
CC(C)[C@@H](NC(=O)c1nccs1)C(=O)N1CCC2(CC1)C(=O)N(C)C(=O)N2c1ccc2[nH]ncc2c1 [Example 234, (R)—N-(1-(1-(1H-Indazol-5-yl)-3-methyl-2,4-dioxo-1,3,8-triazaspiro[4.5]decan-8-yl)-3-methyl-1-oxobutan-2-yl)thiazole-2-carboxamide]	≥ 1000
COC1CCC(N2C(=O)N(C)C(=O)C23CCN(C(=O)[C@H](NC(=O)c2cc(C(F)(F)F)ccc2F)C(C)C)CC3)CC1 (stereo partly drawn) [Example 241, (R)-2-Fluoro-N-(1-(1-(4-methoxycyclohexyl)-3-methyl-2,4-dioxo-1,3,8-triazaspiro[4.5]decan-8-yl)-3-methyl-1-oxobutan-2-yl)-5-(trifluoromethyl)benzamide]	≥ 1000
Cc1cc(N2CN(C)C(=O)C23CCN(C(=O)[C@H](NC(=O)c2cc(C(F)(F)F)ccc2F)C(C)C)CC3)ccc1C(=O)O [Example 158, (R)-4-(8-(2-(2-Fluoro-5-(trifluoromethyl)benzamido)-3-methylbutanoyl)-3-methy-4-oxo-1,3,8-triazaspiro[4.5]decan-1-yl)-2-methylbenzoic Acid]	≥ 1000
CCN1C(=O)N(C)C(=O)C12CCN(C(=O)[C@H](NC(=O)c1cc(C(F)(F)F)ccc1F)C(C)C)CC2 [Example 123, (R)—N-(1-(1-Ethyl-3-methyl-2,4-dioxo-1,3,8-triazaspiro[4.5]decan-8-yl)-3-methyl-1-oxobutan-2-yl)-2-fluoro-5-(trifluoromethyl)benzamide]	≥ 1000
CCc1ccc(F)c(C(=O)N[C@@H](C(=O)N2CCC3(CC2)C(=O)N(C)CN3c2ccc(NS(C)(=O)=O)cc2)C(C)C)c1 [Example 173, (R)-5-Ethyl-2-fluoro-N-(3-methyl-1-(3-methyl-1-(4-(methylsulfonamido)phenyl)-4-oxo-1,3,8-triazaspiro[4.5]decan-8-yl)-1-oxobutan-2-yl)benzamide]	< 500
CC(C)[C@@H](NC(=O)c1cccc(F)c1)C(=O)N1CCC2(CC1)C(=O)N(C)C(=O)N2c1ccccc1 [Example 2, (R)-3-Fluoro-N-(3-methyl-1-(3-methyl-2,4-dioxo-1-phenyl-1,3,8-triazaspiro[4.5]decan-8-yl)-1-oxobutan-2-yl)benzamide]	≥ 1000
CN1CN(c2ccc(C(=O)O)cc2)C2(CCN(C(=O)[C@H](NC(=O)c3cc(C(F)(F)F)ccc3F)C3CCCC3)CC2)C1=O [Example 156, (R)-4-(8-(2-Cyclopentyl-2-(2-fluoro-5-(trifluoromethyl)benzamido)acetyl)-3-methyl-4-oxo-1,3,8-triazaspiro[4.5]decan-1-yl)benzoic Acid]	< 500
CC(C)[C@@H](NC(=O)c1cc(C(F)(F)F)ccc1F)C(=O)N1CCC2(CC1)C(=O)N(C)C(=O)N2c1ccc2[nH]nnc2c1 [Example 32, (R)—N-(1-(1-(1H-Benzo[d][1,2,3]triazol-5-yl)-3-methyl-2,4-dioxo-1,3,8-triazaspiro [4.5]decan-8-yl)-3-methyl-1-oxobutan-2-yl)-2-fluoro-5-(trifluoromethyl)benzamide]	< 500
CC(C)[C@@H](NC(=O)c1cc(C(F)(F)F)ccc1F)C(=O)N1CCC2(CC1)C(=O)N(C)C(=O)N2Cc1ccc2oc(=O)n(C)c2c1 [Example 105, (R)-2-Fluoro-N-(3-methyl-1-(3-methyl-1-((3-methyl-2-oxo-2,3-dihydrobenzo[d]oxazol-5-yl)methyl)-2,4-dioxo-1,3,8-triazaspiro[4.5]decan-8-yl)-1-oxobutan-2-yl)-5-(trifluoromethyl)benzamide]	< 500
CC(C)[C@@H](NC(=O)c1cc(C(F)(F)F)ccc1F)C(=O)N1CCC2(CC1)C(=O)N(C)C(=O)N2c1ccc2occc2c1 [Example 27, (R)-2-Fluoro-N-(3-methyl-1-(3-methyl-2,4-dioxo-1-(5-benzofuran)-1,3,8-triazaspiro[4.5]decan-8-yl)-1-oxobutan-2-yl)-5-(trifluoromethyl)benzamide]	< 500
CC(C)[C@@H](NC(=O)c1cc(C(F)(F)F)ccc1F)C(=O)N1CCC2(CC1)C(=O)N(C)C(=O)N2c1ccc(=O)[nH]c1 [Example 22, (R)-2-Fluoro-N-(3-methyl-1-(3-methyl-2,4-dioxo-1-(6-oxo-1,6-dihydropyridin-3-yl)-1,3,8-triazaspiro[4.5]decan-8-yl)-1-oxobutan-2-yl)-5-(trifluoromethyl)benzamide]	≥ 1000
CC(C)[C@@H](NC(=O)c1cc(C(F)(F)F)ccc1F)C(=O)N1CCC2(CC1)C(=O)N(C)C(=O)N2c1ccc2c(c1)OCC(=O)N2 [Example 30, (R)-2-Fluoro-N-(3-methyl-1-(3-methyl-2,4-dioxo-1-(3-oxo-3,4-dihydro-2H-benzo[b][1,4]oxazin-7-yl)-1,3,8-triazaspiro[4.5]decan-8-yl)-1-oxobutan-2-yl)-5-(trifluoromethyl)benzamide]	500 to 1000
